Columns and labels:
Format in all cases: biochemical
LCK = LCK (Homo sapiens, UniProt P06239); assay: Inhibition of a panel of kinases, in vitro HotSpot kinase assay: LCK; conditions: Table 13, A compounds; 1 μM ATP; read-out: IC50 LCK
JAK3 = target: T1, JAK3 (Homo sapiens, UniProt P52333); assay: Inhibition of a panel of kinases, in vitro HotSpot kinase assay: JAK3; conditions: Table 13, A compounds; 1 μM ATP; read-out: IC50 JAK3
T1 sequence (P52333 1-1124): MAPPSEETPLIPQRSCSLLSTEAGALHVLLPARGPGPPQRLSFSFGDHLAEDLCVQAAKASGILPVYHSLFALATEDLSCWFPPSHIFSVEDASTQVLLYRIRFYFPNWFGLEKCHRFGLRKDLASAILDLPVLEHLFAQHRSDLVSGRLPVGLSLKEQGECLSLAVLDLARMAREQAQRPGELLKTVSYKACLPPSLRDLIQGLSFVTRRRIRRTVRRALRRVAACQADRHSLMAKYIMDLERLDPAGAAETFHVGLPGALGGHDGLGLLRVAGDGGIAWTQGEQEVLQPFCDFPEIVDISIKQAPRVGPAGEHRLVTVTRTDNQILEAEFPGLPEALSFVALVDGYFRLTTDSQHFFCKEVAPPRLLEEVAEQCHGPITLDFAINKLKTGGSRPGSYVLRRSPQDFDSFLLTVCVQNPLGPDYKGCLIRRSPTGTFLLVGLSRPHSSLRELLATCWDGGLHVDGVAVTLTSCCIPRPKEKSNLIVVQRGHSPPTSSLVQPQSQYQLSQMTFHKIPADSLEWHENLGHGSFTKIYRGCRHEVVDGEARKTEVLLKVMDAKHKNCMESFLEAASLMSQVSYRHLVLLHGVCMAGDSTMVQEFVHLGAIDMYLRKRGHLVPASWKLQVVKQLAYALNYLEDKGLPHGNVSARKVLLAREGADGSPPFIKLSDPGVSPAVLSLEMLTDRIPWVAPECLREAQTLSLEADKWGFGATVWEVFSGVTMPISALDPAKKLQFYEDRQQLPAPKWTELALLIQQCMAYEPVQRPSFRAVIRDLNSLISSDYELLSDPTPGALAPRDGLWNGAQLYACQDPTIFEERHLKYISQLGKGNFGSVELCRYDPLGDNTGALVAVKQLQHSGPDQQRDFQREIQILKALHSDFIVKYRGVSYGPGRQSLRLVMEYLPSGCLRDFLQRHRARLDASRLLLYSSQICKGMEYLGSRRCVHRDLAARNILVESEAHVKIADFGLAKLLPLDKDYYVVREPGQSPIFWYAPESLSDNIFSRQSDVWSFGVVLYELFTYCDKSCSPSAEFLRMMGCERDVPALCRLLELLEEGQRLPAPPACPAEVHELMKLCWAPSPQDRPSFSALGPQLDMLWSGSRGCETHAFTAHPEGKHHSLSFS

BTK-WT = target: T2, BTK-WT (Homo sapiens, UniProt Q06187); assay: Btk in vitro inhibitory activity (one of Method A TR-FRET, Method B electrophoretic mobility shift, Method C radiometric filter binding); conditions: Table 13, A compounds; read-out: IC50 BTK-WT
T2 construct: purified from insect cells as a full-length construct containing an N-terminal 6X-His tag; His6 (N); made in house; host or cells: insect cells (baculovirus Sf21 in Method B)
T2 sequence (Q06187 whole entry): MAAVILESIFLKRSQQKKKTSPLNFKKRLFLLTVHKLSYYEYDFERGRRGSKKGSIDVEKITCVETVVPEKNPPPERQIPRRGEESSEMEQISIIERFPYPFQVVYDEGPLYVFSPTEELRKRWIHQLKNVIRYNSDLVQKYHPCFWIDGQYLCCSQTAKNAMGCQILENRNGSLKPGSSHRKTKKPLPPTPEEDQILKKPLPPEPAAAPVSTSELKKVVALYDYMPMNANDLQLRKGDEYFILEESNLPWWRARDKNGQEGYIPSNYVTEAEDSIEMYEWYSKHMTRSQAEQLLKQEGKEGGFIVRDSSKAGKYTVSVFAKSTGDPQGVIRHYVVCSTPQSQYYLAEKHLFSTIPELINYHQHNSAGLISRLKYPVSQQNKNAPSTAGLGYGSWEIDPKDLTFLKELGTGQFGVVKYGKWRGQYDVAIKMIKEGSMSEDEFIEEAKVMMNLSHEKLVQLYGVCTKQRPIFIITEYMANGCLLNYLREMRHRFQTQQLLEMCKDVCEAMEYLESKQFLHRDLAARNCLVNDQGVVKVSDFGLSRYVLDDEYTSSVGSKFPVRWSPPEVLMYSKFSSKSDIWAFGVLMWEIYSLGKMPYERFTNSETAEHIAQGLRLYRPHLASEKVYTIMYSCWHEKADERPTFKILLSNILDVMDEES

Sequence of LCK (P06239 whole entry): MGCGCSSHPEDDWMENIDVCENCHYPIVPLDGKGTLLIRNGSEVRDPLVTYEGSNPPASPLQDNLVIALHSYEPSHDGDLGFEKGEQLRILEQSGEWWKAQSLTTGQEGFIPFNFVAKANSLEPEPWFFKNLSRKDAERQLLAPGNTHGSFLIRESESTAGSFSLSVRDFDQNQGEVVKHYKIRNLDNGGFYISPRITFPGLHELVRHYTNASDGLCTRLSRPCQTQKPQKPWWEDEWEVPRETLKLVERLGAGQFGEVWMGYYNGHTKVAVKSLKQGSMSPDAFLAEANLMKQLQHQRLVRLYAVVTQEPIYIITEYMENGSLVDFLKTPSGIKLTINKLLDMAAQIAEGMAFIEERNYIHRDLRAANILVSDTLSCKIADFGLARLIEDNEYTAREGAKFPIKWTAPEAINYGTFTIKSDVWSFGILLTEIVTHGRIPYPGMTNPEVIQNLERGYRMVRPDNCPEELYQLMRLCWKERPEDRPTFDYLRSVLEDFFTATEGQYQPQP

| SMILES | IC50 (LCK) [nM] | IC50 (JAK3) [nM] | IC50 (BTK-WT) [nM] |
| --- | --- | --- | --- |
| CN(C)C(=O)N[C@@H]1CCCN(c2cnc(C(N)=O)c(Nc3ccc(C4(C)CCN(C5CCCC5)CC4)cc3)n2)[C@@H]1CO [Example A-101, 3-{[4-(1-cyclopentyl-4-methylpiperidin-4-yl)phenyl]amino}-5-[(2S,3R)-3-[(dimethylcarbamoyl)amino]-2-(hydroxymethyl)piperidin-1-yl]pyrazine-2-carboxamide] | 100 to 1000 | 1000 to 10000 | ≤ 10 |
| C[C@@H]1[C@H](NC(=O)c2ccc(C3CC3)cc2F)CCCN1c1cnc(C(N)=O)c(Nc2ccc(CN3CCN(C)CC3)cc2)n1 [Example A-106, 5-[(2R,3R)-3-(4-cyclopropyl-2-fluorobenzamido)-2-methylpiperidin-1-yl]-3-({4-[(4-methylpiperazin-1-yl)meth-yl]phenyl}amino)pyrazine-2-carboxamide] | 10 to 100 | 100 to 1000 | ≤ 10 |
| Cc1cc(Nc2nc(N3CCC[C@@H](n4ccc5cc(C6CC6)ccc5c4=O)C3)cnc2C(N)=O)sn1 [Example A-107, 5-[(3R)-3-(6-cyclopropyl-1-oxo-1,2-dihydroisoquinolin-2-yl)piperidin-1-yl]-3-[(3-methyl-1,2-thiazol-5-yl)amino]pyrazine-2-carboxamide] | > 10000 | > 10000 | ≤ 10 |
| CN1CCN(C(=O)c2ccc(Nc3nc(N4CCC[C@@H](n5ccc6cc(C7CC7)ccc6c5=O)C4)cnc3C(N)=O)cc2)CC1 [Example A-115, 5-[(3R)-3-(6-cyclo-propyl-1-oxo-1,2-dihydroisoquinolin-2-yl)piperidin-1-yl]-3-{[4-(4-methylpiperazine-1-carbonyl)phenyl]amino}pyr-azine-2-carboxamide] | 100 to 1000 | 100 to 1000 | ≤ 10 |
| C[C@@H]1[C@H](NC(=O)c2ccc(C3CC3)cc2F)CCCN1c1cnc(C(N)=O)c(Nc2ccc(C3(C)CCN(C4CCCC4)CC3)cc2)n1 [Example A-121, 3-{[4-(1-cyclopentyl-4-methylpiperidin-4-yl)phenyl]amino}-5-[(2R,3R)-3-(4-cyclopropyl-2-fluorobenzamido)-2-methylpiperidin-1-yl]pyrazine-2-carboxamide] | < 10 | 100 to 1000 | ≤ 10 |
| C[C@@H]1[C@H](NC(=O)c2ccc(C3CC3)cc2F)CCCN1c1cnc(C(N)=O)c(Nc2ccc(N3CCN(C4CCCC4)CC3)cc2)n1 [Example A-125, 3-{[4-(4-cyclopentylpiperazin-1-yl)phenyl]amino}-5-[(2R,3R)-3-(4-cyclopropyl-2-fluorobenzamido)-2-methylpiperidin-1-yl]pyrazine-2-carboxamide] | 100 to 1000 | 100 to 1000 | ≤ 10 |
| C[C@@H]1[C@H](NC(=O)c2ccc(C3CC3)cc2F)CCCN1c1cnc(C(N)=O)c(Nc2cnn(C)c2)c1 [Example A-127, 5-[(2R,3R)-3-(4-cyclopropyl-2-fluorobenzamido)-2-methylpiperidin-1-yl]-3-[(1-methyl-1H-pyrazol-4-yl)amino]pyridine-2-carboxamide] | 100 to 1000 | 1000 to 10000 | 10 to 100 |
| C[C@@H]1[C@H](NC(=O)c2ccc(C3CC3)cc2F)CCCN1c1cnc(C(N)=O)c(Nc2cc(CN3CCOCC3)ns2)n1 [Example A-128, 5-[(2R,3R)-3-(4-cyclopropyl-2-fluorobenzamido)-2-methylpiperidin-1-yl]-3-{[3-(morpholin-4-ylmethyl)-1,2-thiazol-5-yl]amino}pyrazine-2-carboxamide] | 10 to 100 | 100 to 1000 | ≤ 10 |
| C[C@@H]1[C@H](n2ccc3cc(C4CC4)ccc3c2=O)CCCN1c1cnc(C(N)=O)c(Nc2ccc(N3CCN(C)CC3)cc2)n1 [Example A-140, 5-[(2R,3R)-3-(6-cyclopropyl-1-oxo-1,2-dihydro-isoquinolin-2-yl)-2-methylpiperidin-1-yl]-3-{[4-(4-methylpiperazin-1-yl)phenyl]amino}pyrazine-2-carboxamide] | 10 to 100 | 1000 to 10000 | ≤ 10 |
| CC1(c2ccc(Nc3nc(N4CCC[C@@H](n5ccc6cc(C7CC7)ccc6c5=O)C4)cnc3C(N)=O)cc2)CCN(C2CCCC2)CC1 [Example A-141, 3-{[4-(1-cyclopentyl-4-methylpiperidin-4-yl)phenyl]amino}-5-[(3R)-3-(6-cyclopropyl-1-oxo-1,2-dihydroisoquinolin-2-yl)piperidin-1-yl]pyrazine-2-carboxamide] | 10 to 100 | 100 to 1000 | ≤ 10 |

Now from value to compound:

| IC50 (LCK) [nM] | IC50 (JAK3) [nM] | IC50 (BTK-WT) [nM] | SMILES |
| --- | --- | --- | --- |
| > 10000 | > 10000 | 100 to 1000 | C[C@@H]1[C@H](NC(=O)c2ccc(C3CC3)cc2F)CCCN1c1cnc(C(N)=O)c(Nc2nc3c(s2)CN(C)CC3)n1 [Example A-108, 5-[(2R,3R)-3-(4-cyclopropyl-2-fluorobenzamido)-2-methylpiperidin-1-yl]-3-({5-methyl-4H,5H,6H,7H-[1,3]thiazolo[5,4-c]pyridin-2-yl}amino)pyrazine-2-carboxamide] |
| 1000 to 10000 | 1000 to 10000 | ≤ 10 | C[C@@H]1[C@H](NC(=O)c2ccc(C3CC3)cc2F)CCCN1c1cnc(C(N)=O)c(Nc2cnn(C)c2)n1 [Example A-110, 5-[(2R,3R)-3-(4-cyclopropyl-2-fluorobenzamido)-2-methylpiperidin-1-yl]-3-[(1-methyl-1H-pyrazol-4-yl)amino]pyrazine-2-carboxamide] |
| 100 to 1000 | 100 to 1000 | ≤ 10 | CN1CCN(Cc2ccc(Nc3nc(N4CCC[C@@H](n5ccc6cc(C7CC7)ccc6c5=O)C4)cnc3C(N)=O)cc2)CC1 [Example A-111, 5-[(3R)-3-(6-cyclopropyl-1-oxo-1,2-dihydroisoquinolin-2-yl)piperidin-1-yl]-3-({4-[(4-methylpiperazin-1-yl)meth-yl]phenyl}amino)pyrazine-2-carboxamide] |
| 100 to 1000 | 100 to 1000 | ≤ 10 | C[C@@H]1[C@H](NC(=O)c2ccc(C3CC3)cc2F)CCCN1c1cnc(C(N)=O)c(Nc2ccc(C(=O)N3CCN(C)CC3)cc2)n1 [Example A-122, 5-[(2R,3R)-3-(4-cyclopropyl-2-fluorobenzamido)-2-methylpiperidin-1-yl]-3-{[4-(4-methylpiperazine-1-carbonyl)phenyl]amino}pyr-azine-2-carboxamide] |
| 100 to 1000 | 100 to 1000 | ≤ 10 | CN1CCN(c2ccc(Nc3nc(N4CCC[C@@H](n5ccc6cc(C7CC7)cc(F)c6c5=O)C4)cnc3C(N)=O)cc2)CC1 [Example A-133, 5-[(3R)-3-(6-cyclo-propyl-8-fluoro-1-oxo-1,2-dihydroisoquinolin-2-yl)piperidin-1-yl]-3-{[4-(4-methylpiperazin-1-yl)phenyl]amino}pyrazine-2-carboxamide] |
| 10 to 100 | 1000 to 10000 | ≤ 10 | CC(C)N1CCN(c2ccc(Nc3nc(N4CCC[C@@H](NC(=O)c5ccc(C6CC6)cc5F)[C@H]4C)cnc3C(N)=O)cc2)CC1 [Example A-149, 5-[(2R,3R)-3-(4-cyclopropyl-2-fluorobenzamido)-2-methylpiperidin-1-yl]-3-({4-[4-(propan-2-yl)piperazin-1-yl]phenyl}amino)pyrazine-2-carboxamide] |
| 1000 to 10000 | > 10000 | ≤ 10 | C[C@@H]1[C@H](NC(=O)c2ccc(C3CC3)cc2F)CCCN1c1cnc(C(N)=O)c(Nc2ccc(S(=O)(=O)N3CCN(C)CC3)cc2)n1 [Example A-156, 5-[(2R,3R)-3-(4-cyclopropyl-2-fluorobenzamido)-2-methylpiperidin-1-yl]-3-({4-[(4-methylpiperazin-1-yl)sulfonyl]phenyl}amino)pyr-azine-2-carboxamide] |
| 1000 to 10000 | > 10000 | ≤ 10 | Cn1cc(Nc2nc(N3CCC[C@@H](n4ccc5cc(C6CC6)ccc5c4=O)C3)cnc2C(N)=O)cn1 [Example A-167, 5-[(3R)-3-(6-cyclopropyl-1-oxo-1,2-dihydroisoquinolin-2-yl)piperidin-1-yl]-3-[(1-methyl-1H-pyrazol-4-yl)amino]pyrazine-2-carboxamide] |

From US20210070748A1, “INHIBITORS OF BRUTONS TYROSINE KINASE” (Pharmacyclics LLC, priority 2015, published 2021)
